Measurements: the supplement of paper PMC4380931

Legend:
Assay in all cases: apoptotic fraction of cells (caspase-3 NucView488 positive); higher = more apoptosis
COLO858 = system: COLO858
Description: (§1)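 BRAF V600E/D melanoma cell lines were seeded in 96-well plates, treated in 4 replicates with seven doses (3.16 nM to 3.16 uM) of RAF/MEK inhibitors for 24, 48 or 72 h, and stained with Hoechst 33342 (nuclei) and DEVD-NucView488 caspase-3 substrate. Plates were imaged on an Operetta. Relative viability is the cell count normalised to a DMSO-treated control; apoptosis fraction is the fraction of NucView488-positive nuclei.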

K2 = system: K2
Description: as §1

LOXIMVI = system: LOXIMVI
Description: as §1

MZ7MEL = system: MZ7MEL
Description: as §1

RVH421 = system: RVH421
Description: as §1

WM115 = system: WM115
Description: as §1

WM1552C = system: WM1552C
Description: as §1

CCCS(=O)(=O)Nc1ccc(F)c(C(=O)c2c[nH]c3ncc(Cl)cc23)c1F [PLX4720]
apoptotic fraction of cells
Conditions	0.00316 µM	0.01 µM	0.0316 µM	0.1 µM	0.316 µM	1 µM	3.16 µM
COLO858, 24 h	0.0469	0.0452	0.0424	0.0482	0.0562	0.108	0.154
COLO858, 48 h	0.0522	0.0523	0.0462	0.0498	0.0785	0.184	0.323
COLO858, 72 h	0.0883	0.0826	0.0717	0.053	0.0842	0.183	0.374
K2, 24 h	0.00502	0.00388	0.00353	0.00321	0.00817	0.0503	0.153
K2, 48 h	0.00236	0.00224	0.00201	0.00525	0.0166	0.0858	0.173
LOXIMVI, 24 h	0.0547	0.0479	0.0396	0.0507	0.033	0.0507	0.0445
LOXIMVI, 48 h	0.111	0.0809	0.0585	0.0482	0.0482	0.0654	0.113
LOXIMVI, 72 h	0.211	0.144	0.074	0.0395	0.048	0.0542	0.159
MZ7MEL, 24 h	0.013	0.0082	0.01	0.00501	0.00918	0.0127	0.0325
MZ7MEL, 48 h	0.0158	0.0193	0.0129	0.0113	0.0205	0.0277	0.0483
MZ7MEL, 72 h	0.0184	0.0171	0.0142	0.0198	0.0439	0.105	0.151
RVH421, 24 h	0.0586	0.0457	0.0542	0.052	0.0578	0.0478	0.0574
RVH421, 48 h	0.0464	0.062	0.0512	0.05	0.058	0.0593	0.0831
RVH421, 72 h	0.0342	0.035	0.0338	0.0375	0.0466	0.051	0.0617
WM115, 24 h	0.0488	0.0373	0.0513	0.0369	0.0371	0.0643	0.0673
WM115, 48 h	0.0421	0.0454	0.0356	0.0312	0.0333	0.0466	0.122
WM115, 72 h	0.0312	0.0316	0.0268	0.0303	0.0415	0.129	0.381
WM1552C, 24 h	0.0609	0.0582	0.0522	0.0708	0.0728	0.0756	0.0738
WM1552C, 48 h	0.0618	0.0656	0.0655	0.0534	0.044	0.0563	0.0762
WM1552C, 72 h	0.0768	0.0708	0.0682	0.063	0.0671	0.0953	0.129

Cn1cnc2c(F)c(Nc3ccc(Br)cc3Cl)c(C(=O)NOCCO)cc21 [Selumetinib]
apoptotic fraction of cells
Conditions	0.00316 µM	0.01 µM	0.0316 µM	0.1 µM	0.316 µM	1 µM	3.16 µM
COLO858, 24 h	0.0501	0.0441	0.0433	0.0474	0.083	0.137	0.149
COLO858, 48 h	0.0496	0.049	0.0473	0.0649	0.155	0.232	0.313
COLO858, 72 h	0.0958	0.0753	0.0678	0.0769	0.134	0.259	0.383
K2, 24 h	0.00506	0.00321	0.00454	0.0128	0.0266	0.123	0.142
K2, 48 h	0.0027	0.00331	0.0058	0.0372	0.0691	0.199	0.332
LOXIMVI, 24 h	0.0508	0.0393	0.0293	0.0452	0.0393	0.0476	0.0428
LOXIMVI, 48 h	0.111	0.0778	0.0621	0.0589	0.0582	0.0523	0.0597
LOXIMVI, 72 h	0.161	0.0676	0.0426	0.0445	0.0604	0.0759	0.105
MZ7MEL, 24 h	0.0105	0.0133	0.0129	0.013	0.021	0.03	0.0358
MZ7MEL, 48 h	0.02	0.0157	0.0142	0.0195	0.0385	0.0514	0.0696
MZ7MEL, 72 h	0.0201	0.0173	0.0366	0.108	0.158	0.239	0.314
RVH421, 24 h	0.0531	0.0501	0.0442	0.0496	0.0515	0.0523	0.0612
RVH421, 48 h	0.0489	0.0601	0.0622	0.0642	0.0635	0.0671	0.0755
RVH421, 72 h	0.0328	0.0321	0.0318	0.0418	0.0438	0.0599	0.0977
WM115, 24 h	0.0496	0.0509	0.0515	0.0423	0.0578	0.102	0.143
WM115, 48 h	0.0459	0.0343	0.0345	0.0394	0.072	0.186	0.269
WM115, 72 h	0.0278	0.027	0.0324	0.0559	0.115	0.302	0.456
WM1552C, 24 h	0.0571	0.0689	0.0771	0.0894	0.0876	0.112	0.0803
WM1552C, 48 h	0.065	0.0655	0.0575	0.0656	0.0753	0.0765	0.1
WM1552C, 72 h	0.0885	0.073	0.0737	0.0814	0.104	0.146	0.19

CCCS(=O)(=O)Nc1ccc(F)c(C(=O)c2c[nH]c3ncc(-c4ccc(Cl)cc4)cc23)c1F [Vemurafenib]
apoptotic fraction of cells
Conditions	0.00316 µM	0.01 µM	0.0316 µM	0.1 µM	0.316 µM	1 µM	3.16 µM
COLO858, 24 h	0.0468	0.0448	0.0467	0.0418	0.0538	0.0998	0.151
COLO858, 48 h	0.0487	0.0502	0.048	0.0491	0.0797	0.194	0.453
COLO858, 72 h	0.0879	0.0831	0.0746	0.0587	0.0687	0.25	0.723
K2, 24 h	0.00416	0.00233	0.00265	0.00174	0.00473	0.0444	0.183
K2, 48 h	0.00306	0.00257	0.00173	0.00229	0.0116	0.0823	0.237
LOXIMVI, 24 h	0.0511	0.0524	0.0364	0.0578	0.0383	0.0551	0.0557
LOXIMVI, 48 h	0.103	0.0517	0.0505	0.0455	0.0414	0.0496	0.0897
LOXIMVI, 72 h	0.191	0.153	0.0537	0.0438	0.0484	0.074	0.129
MZ7MEL, 24 h	0.0137	0.0131	0.00722	0.00978	0.0118	0.0206	0.0379
MZ7MEL, 48 h	0.0184	0.0167	0.0196	0.0148	0.0203	0.0385	0.0682
MZ7MEL, 72 h	0.0218	0.0158	0.0159	0.0167	0.0378	0.103	0.193
RVH421, 24 h	0.04937	0.0545	0.0463	0.0489	0.0609	0.0547	0.0664
RVH421, 48 h	0.0497	0.0508	0.0538	0.0604	0.0622	0.0737	0.0864
RVH421, 72 h	0.0342	0.0343	0.0341	0.0335	0.0444	0.0453	0.0682
WM115, 24 h	0.0555	0.0451	0.0561	0.0385	0.0444	0.0572	0.0792
WM115, 48 h	0.0621	0.0504	0.0424	0.0407	0.0303	0.045	0.116
WM115, 72 h	0.0323	0.0325	0.0317	0.0278	0.0361	0.125	0.407
WM1552C, 24 h	0.0617	0.0655	0.0602	0.0665	0.0682	0.0745	0.0696
WM1552C, 48 h	0.078	0.0701	0.0688	0.0684	0.063	0.0641	0.0951
WM1552C, 72 h	0.088	0.0756	0.0733	0.0668	0.0671	0.0874	0.164
